Results published in PubChem BioAssay (NCI).
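Five concentrations, 48 hours, 96-well plates. Here, GI50 denotes the concentration required for 50% inhibition of growth. TGI: total growth inhibition.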

What was measured:
Assay in all cases: NCI-60 cell line screen, 48 h
[1] = tested on: HCT-15 colon
[2] = tested on: MOLT-4 leukemia
[3] = tested on: SK-MEL-28 melanoma
[4] = tested on: IGROV1 ovarian
[5] = tested on: HS 578T breast
[6] = tested on: OVCAR-3 ovarian
[7] = tested on: HOP-62 NSCLC
[8] = tested on: SK-OV-3 ovarian
[9] = tested on: SR leukemia
[10] = tested on: NCI-H226 lung
[11] = tested on: RXF 393 renal
[12] = tested on: SNB-19 CNS
[13] = tested on: SNB-75 CNS
[14] = tested on: SK-MEL-5 melanoma
[15] = tested on: HT29 colon
[16] = tested on: SF-268 CNS
[17] = tested on: SN12C renal
[18] = tested on: DU-145 prostate
[19] = tested on: ACHN renal
[20] = tested on: OVCAR-8 ovarian
[21] = tested on: A498 renal
[22] = tested on: UO-31 renal
[23] = tested on: OVCAR-4 ovarian
[24] = tested on: HOP-92 NSCLC
[25] = tested on: T-47D breast
[26] = tested on: CAKI-1 renal
[27] = tested on: U251 CNS
[28] = tested on: COLO 205 colon
[29] = tested on: PC-3 prostate

In the case of CN1CCN(Cc2ccc(NC(=O)c3cnc(F)c(C#Cc4cnc(N)c5ncccc45)c3)cc2C(F)(F)F)CC1, the GI50 [1] is reported as 184 nM, the TGI [1] is reported as 7.53 µM and the GI50 [2] is reported as 182 nM. For the same compound, the TGI [2] was 8.64 µM, the GI50 [3] was 126 nM and the TGI [3] was 804 nM. The GI50 [4] was 139 nM, the TGI [4] was 7.48 µM and the GI50 [5] was 183 nM. For the same compound, the TGI [5] was 2110 nM, the GI50 [6] was 516 nM and the TGI [6] was 9.58 µM. For the same compound, the GI50 [7] was 387 nM, the TGI [7] was 9.9 µM and the GI50 [8] was 263 nM. For the same compound, the TGI [8] was 8.7 µM, the GI50 [9] was 149 nM and the TGI [9] was 50 µM. For the same compound, the GI50 [10] was 121 nM, the TGI [10] was 1940 nM and the GI50 [11] was 122 nM. For the same compound, the TGI [11] was 567 nM, the GI50 [12] was 1940 nM and the TGI [12] was 11.9 µM. The GI50 [13] was 643 nM, the TGI [13] was 6.47 µM and the GI50 [14] was 735 nM. The TGI [14] was 5.05 µM, the GI50 [15] was 143 nM and the TGI [15] was 6.02 µM. The GI50 [16] was 324 nM, the TGI [16] was 6.35 µM and the GI50 [17] was 161 nM. The TGI [17] was 5.57 µM, the GI50 [18] was 273 nM and the TGI [18] was 7.95 µM. It also gave a GI50 [19] of 119 nM, a TGI [19] of 5.27 µM and a GI50 [20] of 425 nM. For the same compound, the TGI [20] was 22.2 µM, the GI50 [21] was 161 nM and the TGI [21] was 963 nM. It also gave a GI50 [22] of 140 nM, a TGI [22] of 1160 nM and a GI50 [23] of 195 nM. For the same compound, the TGI [23] was 8.15 µM, the GI50 [24] was 133 nM and the TGI [24] was 1170 nM. It also gave a GI50 [25] of 983 nM, a TGI [25] of 22.3 µM and a GI50 [26] of 110 nM. It also gave a TGI [26] of 877 nM, a GI50 [27] of 252 nM and a TGI [27] of 13.2 µM. The GI50 [28] was 190 nM, the TGI [28] was 5.33 µM and the GI50 [29] was 320 nM.
